From patent US20250154127A1, “BICYCLIC HETEROARYL COMPOUNDS AND USES THEREOF” (ETERN BIOPHARMA (SHANGHAI) CO., LTD., priority 2022, published 2025) come the findings set out here.

Experiment [1] has as its target TEAD1(210-426) binding to YAP(50-100) (Homo sapiens, UniProt P28347). Description: TR-FRET Assay for TEAD1(210-426) Binding to YAP(50-100). Conditions: His-TEAD 10 nM, YAP-Biotin peptide 50 nM. Summed up: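 10 nM His-TEAD1 preincubated 30 min at room temperature with compound (3-fold dilutions, 12 points, 1% DMSO), then 50 nM biotin-YAP peptide added.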
(In general: In TR-FRET formats the signal depends on donor and acceptor labels being close together.)

For the next experiment, the system named is MSTO-211H cells. Description: Proliferation Assay (CellTiter-Glo Luminescent Cell Viability Assay). It is filed as cell-based. Particulars: Homo sapiens, 96 hours treatment. A digest of the protocol:
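MSTO-211H cells, 1,500/well in RPMI 1640 with 10% FBS, plated overnight, then treated 96 h with 9-point 3-fold compound series in duplicate (DMSO below 0.5%). Viability by CellTiter-Glo luminescence; inhibition relative to DMSO wells, IC50 by four-parameter fit.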

TEAD1(210-426) binding to YAP(50-100), sequence (P28347 209-426): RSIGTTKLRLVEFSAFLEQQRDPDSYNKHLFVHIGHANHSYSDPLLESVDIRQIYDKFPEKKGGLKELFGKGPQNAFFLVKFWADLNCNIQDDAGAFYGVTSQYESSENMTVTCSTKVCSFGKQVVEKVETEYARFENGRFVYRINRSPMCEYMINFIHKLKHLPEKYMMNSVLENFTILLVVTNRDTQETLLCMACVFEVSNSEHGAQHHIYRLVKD

`CNc1ccnc(Cn2ccc(-c3nc(-c4ccc(C(F)(F)F)cc4)n4ccccc34)cc2=O)n1` [Compound 125, 1-((4-(methylamino)pyrimidin-2-yl)methyl)-4-(3-(4-(trifluoromethyl)phenyl)imidazo[1,5-a]pyridin-1-yl)pyridin-2(1H)-one]: the IC50 in experiment [1] is at most 100 nM; with MSTO-211H cells it was at most 1000 nM.

On to `O=c1cc(-c2nn(-c3ccc(C(F)(F)F)cc3)c3ccccc23)ccn1Cc1ccncc1` [Compound 19, 1-(pyridin-4-ylmethyl)-4-(1-(4-(trifluoromethyl)phenyl)-1H-indazol-3-yl)pyridin-2(1H)-one], for which the values for the IC50 (in experiment [1]; in the experiment with MSTO-211H cells) were at most 100 nM and at most 1000 nM, respectively.

Consider `CNc1nccc(Cn2ccc(-c3nn(-c4ccc(OC(F)(F)F)cc4)c4c(F)cccc34)cc2=O)n1` [Compound 145, 4-(7-fluoro-1-(4-(trifluoromethoxy)phenyl)-1H-indazol-3-yl)-1-((2-(methylamino)pyrimidin-4-yl)methyl)pyridin-2(1H)-one], for which the IC50 in experiment [1] was at most 100 nM; in the experiment on MSTO-211H cells, at most 1000 nM.

`C[C@H](c1ccccn1)n1ccc(-c2nn(-c3ccc(C(F)(F)F)cc3)c3cccnc23)cc1=O` [Compound 3, (R)-1-(1-(pyridin-2-yl)ethyl)-4-(1-(4-(trifluoromethyl)phenyl)-1H-pyrazolo[4,3-b]pyridin-3-yl)pyridin-2(1H)-one]: the IC50 in experiment [1] was in the range of 100 to 1000 nM; in the experiment with MSTO-211H cells it was 1000 to 10000 nM.

In the case of `C[C@@H](c1ccccn1)n1ccc(-n2nc(-c3ccc(C(F)(F)F)cc3)c3ncccc32)cc1=O` [Compound 9, (S)-1-(1-(pyridin-2-yl)ethyl)-4-(3-(4-(trifluoromethyl)phenyl)-1H-pyrazolo[4,3-b]pyridin-1-yl)pyridin-2(1H)-one], the IC50 was at most 100 nM in experiment [1] and at most 1000 nM in the experiment with MSTO-211H cells.

Turning to `COc1ccnc(Cn2ccc(-c3cn(-c4ccc(C(F)(F)F)cc4)c4ncccc34)cc2=O)n1` [Compound 80, 1-((4-methoxypyrimidin-2-yl)methyl)-4-(1-(4-(trifluoromethyl)phenyl)-1 H-pyrrolo[2,3-b]pyridin-3-yl)pyridin-2(1H)-one], the IC50 was at most 100 nM in experiment [1] and at most 1000 nM with MSTO-211H cells.

With `CNc1nccc(Cn2ccc(-c3nn(-c4ccc(C5COC5)cc4)c4c(F)cccc34)cc2=O)n1` [Compound 152], the results for the IC50 (in experiment [1]; in the experiment with MSTO-211H cells) were at most 100 nM and at most 1000 nM, respectively.

`Nc1nccc(Cn2ccc(-c3nn(-c4ccc(C(F)(F)F)cc4)c4ccccc34)cc2=O)n1` [Compound 61, 1-((2-aminopyrimidin-4-yl)methyl)-4-(1-(4-(trifluoromethyl)phenyl)-1H-indazol-3-yl)pyridin-2(1H)-one]: the IC50 was at most 100 nM in experiment [1] and at most 1000 nM in the experiment with MSTO-211H cells.

For the molecule `O=c1cc(-c2nn(-c3ccc(OC(F)(F)F)cc3)c3c(F)cccc23)ccn1Cc1ccnc(NCCO)n1` [Compound 151, 4-(7-fluoro-1-(4-(trifluoromethoxy)phenyl)-1H-indazol-3-yl)-1-((2-((2-hydroxyethyl)amino)pyrimidin-4-yl)methyl)pyridin-2(1H)-one], the IC50 is at most 100 nM in experiment [1] and at most 1000 nM with MSTO-211H cells.

As to `CNc1nccc(Cn2ccc(-c3nn(-c4ccc(C(F)(F)F)cc4)c4cc(F)ccc34)cc2=O)n1` [Compound 141, 4-(6-fluoro-1-(4-(trifluoromethyl)phenyl)-1H-indazol-3-yl)-1-((2-(methylamino)pyrimidin-4-yl)methyl)pyridin-2(1H)-one], the IC50 in experiment [1] is at most 100 nM; in the experiment on MSTO-211H cells, at most 1000 nM.

As for `Cn1ccc(Cn2ccc(-c3nn(-c4ccc(C(F)(F)F)cc4)c4ccccc34)cc2=O)n1` [Compound 38, 1-((1-methyl-1H-pyrazol-3-yl)methyl)-4-(1-(4-(trifluoromethyl)phenyl)-1H-indazol-3-yl)pyridin-2(1H)-one], the figures for the IC50 (in experiment [1]; with MSTO-211H cells) were at most 100 nM and at most 1000 nM, respectively.

As to `CNc1ccnc(Cn2ccc(-c3nn(-c4ccc(C(F)(F)F)cc4)c4ncccc34)cc2=O)n1` [Compound 70, 1-((4-(methylamino)pyrimidin-2-yl)methyl)-4-(1-(4-(trifluoromethyl)phenyl)-1H-pyrazolo[3,4-b]pyridin-3-yl)pyridin-2(1H)-one], the IC50 is at most 100 nM in experiment [1] and at most 1000 nM in the experiment on MSTO-211H cells.

Regarding `CNc1nccc(Cn2ccc(-c3nn(-c4ccc(C(F)(F)F)cc4)c4ncccc34)cc2=O)n1` [Compound 97, 1-((2-(methylamino)pyrimidin-4-yl)methyl)-4-(1-(4-(trifluoromethyl)phenyl)-1H-pyrazolo[3,4-b]pyridin-3-yl)pyridin-2(1H)-one], the values for the IC50 (in experiment [1]; in the experiment with MSTO-211H cells) were at most 100 nM and at most 1000 nM, respectively.

The IC50 is the concentration needed to halve the response being measured. Low values mean greater potency in that assay, high ones weaker potency in that assay.
